Values of other authors in US20040170996A1, “Cytotoxic T-Lymphocyte antigen-4 or interleukin-10 polymorphisms as predictors of response to therapeutic intervention” (priority 2001, published 2004).

Test system: interleukin-10 production
Conditions: several in vitro studies

NC(=O)c1ncn([C@@H]2O[C@H](CO)[C@@H](O)[C@H]2O)n1 [Ribavirin, ribavirin]
Effect on interleukin-10 production: downregulate interleukin-10 production
